Earlier results as cited in patent US20070106232A1, “METHOD AND APPARATUS FOR EXTENDING FEEDING TUBE LONGEVITY” (priority 2003, published 2007).
Numbered stars: 1 amine (or outer) side, 2 acyl side, 3 side chain; on linkers, the order of the positions; unused ones are H or OH. Bridge positions count the residues as written; N and C are the ends. Square brackets hold non-standard residues; d marks the D form. Peptide text beside a SMILES is read from it. * marks the point of attachment. hTyr(3S-OH,4S-OH,3'-OSO3H) = N[C@H](C(=O)O)[C@H](O)[C@@H](O)c1ccc(O)c(OS(=O)(=O)O)c1; Orn(4R-OH,5R-OH) = O=C([C@H](C[C@@H](O)[C@@H](O)N[*:3])N[*:1])[*:2]; Pro(3S-OH,4S-Me) = C[C@H]1CN[C@H](C(=O)O)[C@H]1O; X1 = CCCCCOc1ccc(-c2cc(-c3ccc(C(=O)*)cc3)no2)cc1; Gln(3R-OH) = NC(=O)C[C@@H](O)[C@H](N)C(=O)O; Hyp = O=C(O)[C@@H]1C[C@@H](O)CN1

Experiments:
[1] = tested on: yeast crust on inner surface of the tube; conditions: segments incubated in vitro overnight, endoscopic brush next day
[2] = tested on: feeding tube colonized with Candida; conditions: nystatin suspension 500,000 units/5 mL in the off cycle; amphotericin B 1 mg/10 mL for one week; tube lumen filled
[3] = tested on: Candida albicans and Candida parapsilosis biofilms
[4] = tested on: Candida albicans biofilms; conditions: preformed Candida albicans biofilms; physiological concentrations; time-kill
Candida spp. = conditions: including azole-resistant (Candida krusei), less susceptible (C. dubliniensis, C. glabrata) or amphotericin B resistant isolates
[5] = tested on: Candida albicans biofilms
[6] = tested on: fungal colonization of feeding tubes; conditions: pre-procedural preparation of the oropharynx, 1%

In the case of `C[C@@H]1[C@H](O)[C@@H](C)/C=C/C=C/C=C/C=C/C=C/C=C/C=C/[C@H](O[C@@H]2O[C@H](C)[C@@H](O)[C@H](N)[C@@H]2O)C[C@@H]2O[C@](O)(C[C@@H](O)C[C@@H](O)[C@H](O)CC[C@@H](O)C[C@@H](O)CC(=O)O[C@H]1C)C[C@H](O)[C@H]2C(=O)O` [amphotericin B], the “clearing the yeast crust from the inner surface of the tube” value [1] is listed as “unsuccessful”, the “clearing of a feeding tube colonized with Candida” value [2] is listed as “unsuccessful” and the “activity against Candida biofilms” value [3] is listed as “resistant”.

For `CC[C@H](C)C[C@H](C)CCCCCCCCC(=O)N[C@H]1C[C@@H](O)[C@@H](NCCN)NC(=O)[C@@H]2[C@@H](O)CCN2C(=O)[C@H]([C@H](O)CCN)NC(=O)[C@H]([C@H](O)[C@@H](O)c2ccc(O)cc2)NC(=O)[C@@H]2C[C@@H](O)CN2C(=O)[C@H]([C@@H](C)O)NC1=O` [caspofungin], the killing [4] is given as at least 99%, the “activity against Candida spp.” value (Candida spp.) is given as “active” and the “effect of coating of biomaterials on subsequent biofilm development by Candida albicans” value ([5]; biomaterials coated with drug) is given as “inhibitory effect”. For the same molecule, the “effects on preformed Candida albicans biofilms” value ([5]; scanning electron microscopy and confocal scanning laser microscopy) was “altered the cellular morphology and the metabolic status”, the “minimum inhibitory concentration at which 50% of the sessile cells were inhibited” value ([5]; sessile Candida albicans cells) was “well within the drug's therapeutic range” and the “in vitro activity against sessile Candida albicans cells within biofilms” value ([5]; sessile cells within biofilms) was “potent in vitro activity”. The “activity against Candida biofilms” value [3] was “showed activity”.

For `[H]/N=C(\N/C(=N/[H])NCCCCCCNC(=N)NC(=N)Nc1ccc(Cl)cc1)Nc1ccc(Cl)cc1` [chlorhexidine], the “activity against Candida biofilms” value [3] is given as “resistant”.

For `OC(Cn1cncn1)(Cn1cncn1)c1ccc(F)cc1F` [fluconazole], the “activity against Candida biofilms” value [3] is given as “resistant”.

For `CCCCCOc1ccc(-c2cc(-c3ccc(C(=O)N[C@H]4C[C@@H](O)[C@@H](O)NC(=O)[C@@H]5[C@@H](O)[C@@H](C)CN5C(=O)[C@H]([C@H](O)CC(N)=O)NC(=O)[C@H]([C@H](O)[C@@H](O)c5ccc(O)c(OS(=O)(=O)O)c5)NC(=O)[C@@H]5C[C@@H](O)CN5C(=O)[C@H]([C@@H](C)O)NC4=O)cc3)no2)cc1` [micofungin] (X1-[Orn(4R-OH,5R-OH)]T[Hyp][hTyr(3S-OH,4S-OH,3'-OSO3H)][Gln(3R-OH)][Pro(3S-OH,4S-Me)]; lactam 1-C), the “activity against Candida biofilms” value [3] is given as “showed activity”.

For `C[C@@H]1[C@H](O)[C@@H](C)/C=C/C=C/CC/C=C/C=C/C=C/C=C/C(O[C@H]2O[C@H](C)[C@@H](O)[C@H](N)[C@@H]2O)CC2O[C@](O)(CC(O)C(O)CCC(O)CC(O)CC(O)CC(=O)O[C@H]1C)CC(O)C2C(=O)O` (some centres unmarked) [nystatin], the “clearing the yeast crust from the inner surface of the tube” value [1] is listed as “unsuccessful”, the “clearing of a feeding tube colonized with Candida” value [2] is listed as “unsuccessful” and the “activity against Candida biofilms” value [3] is listed as “resistant”.

In the case of `C[C@@H](c1nc(-c2ccc(C#N)cc2)cs1)[C@](O)(Cn1cncn1)c1ccc(F)cc1F` [ravuconazole], the “activity against Candida biofilms” value [3] is given as “resistant”.

In the case of `CN(C/C=C/C#CC(C)(C)C)Cc1cccc2ccccc12` [terbenafine], the “activity against Candida biofilms” value [3] is given as “resistant”.

In the case of `C[C@@H](c1ncncc1F)[C@](O)(Cn1cncn1)c1ccc(F)cc1F` [voriconazole], the “activity against Candida biofilms” value [3] is given as “resistant”.

In the case of neomycin, the “prophylaxis of fungal colonization of feeding tubes” value [6] is given as “failed”.
